Experimental data as given in patent publication US20230303556A1, “PIPERAZINE SUBSTITUTED INDAZOLE COMPOUNDS AS INHIBITORS OF PARG” (IDEAYA BIOSCIENCES, INC., priority 2022, published 2023).
In brackets after ≈: the same amount, converted by molar mass. Like-named read-outs stand apart in the source and are kept apart here.

How the values were obtained:
[1] = molecular target: hPARG (Homo sapiens (Human), UniProt Q86W56); experiment: Inhibition of PARG enzymatic assay (TR-FRET); type: biochemical; conditions: geometric mean; 1 hr compound/enzyme pre-incubation
Protocol: PARG enzyme was incubated with compound or vehicle (DMSO) and the biotinylated-PARylated PARP-1 substrate in a microtiter plate. After adding detection antibody and streptavidin-europium, and then incubating, the plate was read for fluorescence intensity. The low control (DMSO) with low fluorescence intensity represents no inhibition of enzymatic activity, while the high control (no enzyme) with high fluorescence intensity represents full inhibition of enzymatic activity.
• 0% inhibition: DMSO • 100% inhibition: No enzyme Enzyme reaction and Detection: • 1. Transfer 200 nL of 100× compound or DMSO to the appropriate wells of a 384 well white polystyrene microtitre plate (Corning Catalog #3574). • 2. Transfer 10 uL of 2× final concentration of enzyme in assay buffer or assay buffer alone to the appropriate wells. • 3. Centrifuge the plate at 1000 rpm for 30 seconds. • 4. Incubate the plate at room temperature for 1 hour. • 5. Transfer 10 uL of 2× substrate in assay buffer to all test wells. • 6. Incubate the plate at room temperature for 10 minutes • 7. Transfer 10 uL of 3× mixture of 42 nM detection antibody and 2.25 nM streptavidin-europium in 50 mM Tris-HCL pH 7.4 to all test wells. • 8. Incubate the plate at room temperature for 1 hour. • 9. Read the plate on a plate reader (Envision) • Excitation: 317 nm • Emission: 620 nm • Emission: 665 nm
EC50 values were calculated in Collaborative Drug Discovery vault (CDD). Curves were fitted by CDD as response (%) vs compound concentration (uM) using a 4-parameter inhibition model using Formula 1.
(§1) Fit=(A+((B−A)/(1+((C/x)^D))))

[2] = Kinetic solubility in PBS pH 2.0 and pH 7.4; type: physicochemical; conditions: aqueous buffer, kinetic from dmso stock, * n <3 runs
Protocol: • Control compound diclofenac sodium (LOT #BCBW9128) was purchased from Sigma Chemical Co. • 1.5 mL glass flat bottom vials (BioTech Solutions) • Molded PTFE/SIL plugs (BioTech Solutions) • PTFE encapsulated stir stick (V&P Scientific) • MultiScreenHTS HV (0.45 μm) 96 well plate (Millipore, MSHVN4510 or MSHVN4550) • Eppendorf Thermomixer Comfort • Vacuum Manifold ORVMN96. • PBS pH 2.0 and pH 7.4 was prepared in our laboratory
• diclofenac sodium (LOT #BCBW9128), Sigma Chemical Co.
• 1. Preparation of stock solutions. The stock solutions of test compounds and control compound diclofenac sodium were prepared in DMSO at the concentration of 30 mM and 10 mM, respectively. • 2. Procedure for solubility determination. 10 μL of stock solutions (30 mM) of test compounds was placed in order into their proper 96-well rack, 20 μL of DMSO and 970 μL of PBS pH 2.0 or pH 7.4 was added into each vial of the cap-less Solubility Sample plate; 30 μL of stock solution (10 mM) of control compound was placed in order into its proper 96-well rack, 970 μL of PBS pH 2.0 or pH 7.4 was added into each vial of the cap-less Solubility Sample plate. The assay was performed in duplicate. One stir stick was added to each vial and seal using a molded PTFE/Silicone plug. Then the Solubility Sample plate was transferred to the Eppendorf Thermomixer Comfort plate shaker and shaken at 25° C. at 1100 RPM for 24 hours. After completion of the 24 hours, plugs were removed and the stir sticks were removed using a big magnet, the samples from the Solubility Sample plate were transferred into the filter plate. Using the Vacuum Manifold, all the samples were filtered. Aliquot of 10 μL was taken from the filtrate followed by addition of 990 μL of a mixture of H2O and acetonitrile (1:1 in v/v). 200 μL of diluent was transferred to a new 96-well plate for LC-MS/MS analysis. The dilution factor was changed according to the solubility values and the LC-MS signal response. • 3. Preparation of 3 μM standards (STD). From the 10 mM or 30 mM DMSO STD plate, 15 μL or 5 μL was transferred into the remaining empty plate, and then 485 μL or 495 μL of DMSO was added to that plate to have a STD concentration of 300 μM. From the 300 μM DMSO STD plate, 5 μL was transferred into the remaining empty plate, and then 495 μL of a mixture of H2O and acetonitrile (1:1 in v/v) was added to that plate to have a final STD concentration of 3 μM. 200 μL of diluent was transferred to a new 96-well plate for LC-MS/MS analysis. The concentrations of the standard samples were changed according to the LC-MS signal response. • 4. Procedure for sample analysis. The plate was placed into the well plate autosampler. The samples were evaluated by LC-MS/MS analysis.

[3] = system: RMUGS-NucLight Red cells; experiment: Cellular viability assay, RMUGS-NucLight Red; type: cell-based; conditions: 168 h, 7 days incubation, geometric mean
Protocol: (§2) The ability of the compounds disclosed herein to inhibit PARG was determined in the following two cell lines: RMUGS-NucLight Red and SNU601-NucLight Red. RMUGS-NucLight Red and SNU601-NucLight Red cells were generated by stably transducing parental cells (RMUGS-JCRB Cell Bank, Cat no: IF050320; SNU601-Korean Cell Line Bank, Cat no:00601) with Incucyte® NucLight Red lentivirus (Sartorius, Cat no: 4476). Described below are the protocols followed for both the cell lines.
(§3) The cells were plated at 1000 cells/well in a 96-well black plate with clear flat bottom. After 24 hours, the plates were imaged using the Incucyte® S3 Live-Cell Analysis system and the number of live cells in each well (Day 0) was counted. Test compounds were then added by Tecan digital dispenser to generate a 9 point dose curve with a 3 fold dilution and 10 uM top concentration. All treatments were done in duplicates. After 7 days of incubation, the plates were imaged using the Incucyte® S3 system and the number of live cells per well (Day 7) was counted. For every well on the plate, the live cell counts on day 7 was normalized to the cell counts from day 0 (Day 7/Day 0). Average values of DMSO treated wells in a plate were calculated. All the data points were normalized to that of the average DMSO value. The % of control for each sample was compared to DMSO treated control samples. EC5 values were calculated in Collaborative Drug Discovery vault (CDD). Curves were fitted by CDD as % of control vs. log [compound concentration] using a 4-parameter inhibition model (Levenberg-Marquardt algorithm):
as §1

[4] = system: SNU601-NucLight Red cells; experiment: Cellular viability assay, SNU601-NucLight Red; type: cell-based; conditions: SNU-601, 168 h, 7 days incubation, geometric mean
Protocol: as §2
as §3, with “200” for “1000”, “384-well” for “96-well”, “triplicates.” for “duplicates.”, “EC50” for “EC5”
as §1
When clear bi-phasic behavior was observed on the resulting data the EC50 was calculated in GraphPad Prism Software for the major fraction of the response using the following formula:
Section1=Span*Frac/(1+10^((Log EC50_1−X)*nH1))
Section2=Span*(1−Frac)/(1+10^((Log EC50_2−X)*nH2))

[5] = PBS pH 2.0, 25° C., read-out: Kinetic Solubility pH 2.0
[6] = PBS pH 7.4, 25° C., read-out: Kinetic Solubility pH 7.4

Chain of hPARG (Q86W56 whole entry): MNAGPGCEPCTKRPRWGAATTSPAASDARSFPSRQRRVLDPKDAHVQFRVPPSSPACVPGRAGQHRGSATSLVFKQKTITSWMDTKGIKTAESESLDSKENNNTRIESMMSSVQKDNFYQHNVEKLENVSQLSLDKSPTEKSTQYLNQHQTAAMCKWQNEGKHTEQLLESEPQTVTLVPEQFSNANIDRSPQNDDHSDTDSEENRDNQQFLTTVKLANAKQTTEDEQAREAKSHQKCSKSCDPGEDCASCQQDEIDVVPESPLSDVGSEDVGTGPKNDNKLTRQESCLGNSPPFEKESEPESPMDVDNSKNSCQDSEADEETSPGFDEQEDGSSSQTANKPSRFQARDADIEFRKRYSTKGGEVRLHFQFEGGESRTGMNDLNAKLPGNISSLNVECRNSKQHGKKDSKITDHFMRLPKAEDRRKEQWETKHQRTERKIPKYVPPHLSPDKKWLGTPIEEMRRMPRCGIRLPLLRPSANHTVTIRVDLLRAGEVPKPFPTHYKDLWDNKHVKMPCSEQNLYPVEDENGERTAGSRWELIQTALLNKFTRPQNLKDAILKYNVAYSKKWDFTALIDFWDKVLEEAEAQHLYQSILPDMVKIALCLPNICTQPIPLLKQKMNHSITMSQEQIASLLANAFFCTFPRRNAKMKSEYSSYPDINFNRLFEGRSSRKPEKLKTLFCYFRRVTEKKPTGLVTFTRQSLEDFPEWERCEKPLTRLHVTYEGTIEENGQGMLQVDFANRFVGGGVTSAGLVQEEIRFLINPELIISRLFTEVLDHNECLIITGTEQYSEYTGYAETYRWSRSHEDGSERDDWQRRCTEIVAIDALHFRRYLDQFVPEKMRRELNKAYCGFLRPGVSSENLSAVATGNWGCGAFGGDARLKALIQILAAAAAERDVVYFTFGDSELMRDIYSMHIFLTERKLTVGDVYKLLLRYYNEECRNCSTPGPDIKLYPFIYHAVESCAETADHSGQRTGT

Row | Structure (SMILES) | EC50 [1] | solubility kinetic at 24 h [2, 5] | solubility kinetic at 24 h [2, 6] | EC50 [3] | EC50 [4]
1 | CC(C)C(=O)N1CCN(c2cc(S(=O)(=O)NC3(C#N)CC3)cc3c2cnn3-c2nnc(C(F)F)s2)C[C@H]1C | 39 nM | 2.1 µM (≈ 1.19 µg/mL) | 5.6 µM (≈ 3.16 µg/mL) | 75 nM | 146 nM
2 | CN1CCN(c2cc(S(=O)(=O)NC3(C#N)CC3)cc3c2cnn3-c2nnc(C(F)F)s2)CC1 | 201 nM | 289 µM (≈ 143 µg/mL) | 2.7 µM (≈ 1.34 µg/mL) | 439 nM | 1580 nM
3 | Cc1nnc(-n2ccc3ccc(S(=O)(=O)NC4(C)CC4)cc32)s1 | > 10000 nM | 29 µM (≈ 10.1 µg/mL) | 24 µM (≈ 8.36 µg/mL) | > 10000 nM | > 10000 nM
4 | CC(C)C(=O)N1CCN(c2cc(S(=O)(=O)NC3(C#N)CC3)cc3c2cnn3-c2nnc(C(F)F)s2)C[C@@H]1C | 76 nM | 3.4 µM (≈ 1.92 µg/mL) | 8 µM (≈ 4.52 µg/mL) | 137 nM | 184 nM
5 | C[C@H]1CN(c2cc(S(=O)(=O)NC3(C)CC3)cc3c2cnn3-c2nnc(C(F)F)s2)C[C@H](C)N1 [drawing 29] | 1.9 nM | 282 µM (≈ 140 µg/mL) | 42 µM (≈ 20.9 µg/mL) | 4.2 nM | 11 nM
6 | C[C@@H]1CN(c2cc(S(=O)(=O)NC3(C)CC3)cc3c2cnn3-c2nnc(C(F)F)s2)C[C@H](C)N1 | 15 nM | 271 µM (≈ 135 µg/mL) | 31 µM (≈ 15.4 µg/mL) | 11 nM | 27 nM
7 | C[C@@H]1CN(c2cc(S(=O)(=O)NC3(C#N)CC3)cc3c2cnn3-c2nnc(C(F)F)s2)CCN1C(=O)N(C)C | 9.9 nM | 7.2 µM (≈ 4.07 µg/mL) | 14 µM (≈ 7.92 µg/mL) | 60 nM | 84 nM
8 | CC(C)C(=O)N1CCN(c2cc(S(=O)(=O)NC3(C#N)CC3)cc3c2cnn3-c2nnc(C(F)F)s2)CC1 | 19 nM | 1.1 µM (≈ 0.606 µg/mL) | 2.1 µM (≈ 1.16 µg/mL) | 64 nM | 104 nM
9 | C[C@H]1CN(c2cc(S(=O)(=O)NC3(C#N)CC3)cc3c2cnn3-c2nnc(C(F)F)s2)CCN1C(=O)N(C)C | 14 nM | 7.8 µM (≈ 4.41 µg/mL) | 14 µM (≈ 7.92 µg/mL) | 77 nM | 110 nM
10 | C[C@@H]1CN(c2cc(S(=O)(=O)NC3(C)CC3)cc3c2cnn3-c2nnc(C(F)F)s2)C[C@@H](C)N1 | 51 nM | 261 µM (≈ 130 µg/mL) | 41 µM (≈ 20.4 µg/mL) | 32 nM | 89 nM
11 | CN(C)C(=O)N1CCN(c2cc(S(=O)(=O)NC3(C#N)CC3)cc3c2cnn3-c2nnc(C(F)F)s2)CC1 | 6.6 nM | 1 µM (≈ 0.552 µg/mL) | 1.4 µM (≈ 0.772 µg/mL) | 49 nM | 81 nM
12 | CC(C)C(=O)N1[C@H](C)CN(c2cc(S(=O)(=O)NC3(C#N)CC3)cc3c2cnn3-c2nnc(C(F)F)s2)C[C@@H]1C | 79 nM | < 0.03 µM | < 0.03 µM | 101 nM | 178 nM
13 | CN(C)C(=O)N1CCN(c2cc(S(=O)(=O)NC3(C)CC3)cc3c2cnn3-c2nnc(C(F)F)s2)CC1 | 7.3 nM | 0.2 µM (≈ 0.108 µg/mL) | 0.3 µM (≈ 0.162 µg/mL) | 8.3 nM | 36 nM
